The record followed here is the NIST ThermoML archive (doi:10.1016/j.jct.2013.10.017).

Data set [1] can be described thus: activity coefficient (dimensionless); of the first substance listed, at infinite dilution; xn = mol fraction of the nth substance listed. Conditions: 100 kPa, Liquid, Chromatography, x1 = 0.
The nature of data set [2]: refractive index (Na D-line) (dimensionless). Conditions: 101.33 kPa, Liquid, Standard Abbe refractometry.
The conditions of data set [3]: 101.33 kPa, Liquid, Vibrating tube method.

± gives the expanded uncertainty stated by the source.

By refractive index is commonly meant the speed of light in vacuum divided by its phase velocity in the sample. A word on the mass density: it is the mass of a sample divided by its volume.

As for `CCCO` [propan-1-ol] + CCn1cc[n+](C)c1.COCCOCCOS(=O)(=O)[O-], the activity coefficient in data set [1] (308.15 K) stood at 1.01 ± 0.05; in data set [1] (313.15 K) it was 0.989 ± 0.056; in data set [1] (323.15 K), 0.942 ± 0.055; in data set [1] (333.15 K), 0.913 ± 0.063.

On to `CC(C)=O` [acetone] + CCn1cc[n+](C)c1.COCCOCCOS(=O)(=O)[O-], for which the activity coefficient in data set [1] (308.15 K) was found to be 1.42 ± 0.07; in data set [1] (313.15 K), 1.46 ± 0.07; in data set [1] (323.15 K), 1.47 ± 0.11; in data set [1] (333.15 K) it was 1.51 ± 0.13.

Regarding `C=CCCC` [1-pentene] + CCn1cc[n+](C)c1.COCCOCCOS(=O)(=O)[O-], the activity coefficient in data set [1] (308.15 K) came to 26.1 ± 2.4; in data set [1] (313.15 K), 26.5 ± 1.5; in data set [1] (323.15 K) it was 26.3 ± 2; in data set [1] (333.15 K), 25.4 ± 2.

On to `C=CCCCCCCC` [1-nonene] + CCn1cc[n+](C)c1.COCCOCCOS(=O)(=O)[O-], for which the activity coefficient in data set [1] (308.15 K) was found to be 168 ± 7.6; in data set [1] (313.15 K), 168 ± 9.1; in data set [1] (323.15 K), 160 ± 7.1; in data set [1] (333.15 K), 149 ± 8.9.

`C#CCCCCC` [1-heptyne] + CCn1cc[n+](C)c1.COCCOCCOS(=O)(=O)[O-]: the activity coefficient in data set [1] (308.15 K) came to 9.61 ± 0.48; in data set [1] (313.15 K), 9.76 ± 0.56; in data set [1] (323.15 K), 10.1 ± 0.83; in data set [1] (333.15 K), 10.3 ± 1.

With `CCCCCCCC` [octane] + CCn1cc[n+](C)c1.COCCOCCOS(=O)(=O)[O-], the activity coefficient in data set [1] (308.15 K) came to 215 ± 9.9; in data set [1] (313.15 K) it was 216 ± 9.9; in data set [1] (323.15 K) it was 212 ± 10; in data set [1] (333.15 K), 202 ± 10.

As for `CCCCC` [pentane] + CCn1cc[n+](C)c1.COCCOCCOS(=O)(=O)[O-], the activity coefficient stood at 65.8 ± 4.5 in data set [1] (308.15 K), 65.6 ± 4 in data set [1] (313.15 K), 60.8 ± 2.9 in data set [1] (323.15 K) and 59 ± 5.1 in data set [1] (333.15 K).

Turning to `Cc1ccccc1` [toluene] + CCn1cc[n+](C)c1.COCCOCCOS(=O)(=O)[O-], the activity coefficient in data set [1] (308.15 K) came out at 4.43 ± 0.21; in data set [1] (313.15 K) it was 4.45 ± 0.27; in data set [1] (323.15 K), 4.51 ± 0.33; in data set [1] (333.15 K), 4.62 ± 0.45.

Consider `C=CCCCCC` [1-heptene] + CCn1cc[n+](C)c1.COCCOCCOS(=O)(=O)[O-], for which the activity coefficient in data set [1] (308.15 K) came out at 71.3 ± 4.7; in data set [1] (313.15 K), 71.7 ± 3.2; in data set [1] (323.15 K) it was 68.6 ± 4.8; in data set [1] (333.15 K), 65.6 ± 6.1.

`CCCCCCCCC` [nonane] + CCn1cc[n+](C)c1.COCCOCCOS(=O)(=O)[O-]: the activity coefficient in data set [1] (308.15 K) is 292 ± 16; in data set [1] (313.15 K), 303 ± 14; in data set [1] (323.15 K), 288 ± 20; in data set [1] (333.15 K) it was 281 ± 13.

As to `C1CCCC1` [cyclopentane] + CCn1cc[n+](C)c1.COCCOCCOS(=O)(=O)[O-], the activity coefficient in data set [1] (308.15 K) is 27.1 ± 1.3; in data set [1] (313.15 K), 26 ± 1.5; in data set [1] (323.15 K), 24.1 ± 2; in data set [1] (333.15 K), 22.8 ± 1.4.

Turning to `C1CCCCC1` [cyclohexane] + CCn1cc[n+](C)c1.COCCOCCOS(=O)(=O)[O-], the activity coefficient came to 45.4 ± 2.1 in data set [1] (308.15 K), 45 ± 2.9 in data set [1] (313.15 K), 41.5 ± 3.2 in data set [1] (323.15 K) and 38.8 ± 4.1 in data set [1] (333.15 K).

With `C=CCCCCCC` [oct-1-ene] + CCn1cc[n+](C)c1.COCCOCCOS(=O)(=O)[O-], the activity coefficient in data set [1] (308.15 K) is 114 ± 5.6; in data set [1] (313.15 K), 113 ± 6.1; in data set [1] (323.15 K), 107 ± 5.6; in data set [1] (333.15 K), 101 ± 8.

Take `c1ccccc1` [benzene] + CCn1cc[n+](C)c1.COCCOCCOS(=O)(=O)[O-]: the activity coefficient is 2.31 ± 0.12 in data set [1] (308.15 K), 2.33 ± 0.15 in data set [1] (313.15 K), 2.41 ± 0.18 in data set [1] (323.15 K) and 2.48 ± 0.22 in data set [1] (333.15 K).

Consider `C#CCCCC` [1-hexyne] + CCn1cc[n+](C)c1.COCCOCCOS(=O)(=O)[O-], for which the activity coefficient was found to be 6.05 ± 0.32 in data set [1] (308.15 K), 6.22 ± 0.38 in data set [1] (313.15 K), 6.49 ± 0.56 in data set [1] (323.15 K) and 6.73 ± 0.65 in data set [1] (333.15 K).

Take `C1CCCCCCC1` [cyclooctane] + CCn1cc[n+](C)c1.COCCOCCOS(=O)(=O)[O-]: the activity coefficient in data set [1] (308.15 K) worked out at 82.6 ± 3.7; in data set [1] (313.15 K), 79.8 ± 3.6; in data set [1] (323.15 K), 73.4 ± 4.3; in data set [1] (333.15 K), 68.2 ± 6.2.

`CCn1cc[n+](C)c1.COCCOCCOS(=O)(=O)[O-]` [1-ethyl-3-methylimidazolium 2-(2-methoxyethoxy) ethylsulfate]: the refractive index amounted to 1.47929 ± 0.00051 in data set [2] (308.2 K), 1.47565 ± 0.00051 in data set [2] (313.2 K), 1.47281 ± 0.00051 in data set [2] (323.2 K) and 1.46995 ± 0.00051 in data set [2] (333.2 K). Further, the mass density in data set [3] (308.2 K) worked out at 1230.4 ± 1.3 kg/m3; in data set [3] (313.2 K) it was 1226.21 ± 1.3 kg/m3; in data set [3] (323.2 K) it was 1219.6 ± 1.3 kg/m3; in data set [3] (333.2 K) it was 1213.66 ± 1.3 kg/m3.

As for `CC1CCCCC1` [methylcyclohexane] + CCn1cc[n+](C)c1.COCCOCCOS(=O)(=O)[O-], the activity coefficient in data set [1] (308.15 K) is 71.9 ± 3.2; in data set [1] (313.15 K), 70.6 ± 3.3; in data set [1] (323.15 K), 65.8 ± 4.1; in data set [1] (333.15 K), 62.3 ± 5.7.

Consider `C#CCCC` [1-pentyne] + CCn1cc[n+](C)c1.COCCOCCOS(=O)(=O)[O-], for which the activity coefficient in data set [1] (308.15 K) stood at 3.62 ± 0.19; in data set [1] (313.15 K), 3.74 ± 0.25; in data set [1] (323.15 K) it was 3.98 ± 0.4; in data set [1] (333.15 K), 4.13 ± 0.4.

On to `CCCCCCC` [heptane] + CCn1cc[n+](C)c1.COCCOCCOS(=O)(=O)[O-], for which the activity coefficient in data set [1] (308.15 K) was found to be 158 ± 7.1; in data set [1] (313.15 K) it was 158 ± 8; in data set [1] (323.15 K), 147 ± 6.8; in data set [1] (333.15 K) it was 139 ± 6.2.

Turning to `CCc1ccccc1` [ethylbenzene] + CCn1cc[n+](C)c1.COCCOCCOS(=O)(=O)[O-], the activity coefficient in data set [1] (308.15 K) was 8.04 ± 0.38; in data set [1] (313.15 K), 8.04 ± 0.47; in data set [1] (323.15 K), 8.06 ± 0.61; in data set [1] (333.15 K), 8.17 ± 0.74.

For `CCCCCC` [hexane] + CCn1cc[n+](C)c1.COCCOCCOS(=O)(=O)[O-], the activity coefficient in data set [1] (308.15 K) is 103 ± 4.9; in data set [1] (313.15 K) it was 102 ± 4.9; in data set [1] (323.15 K), 94 ± 5.2; in data set [1] (333.15 K) it was 85.7 ± 7.4.

With `CCO` [ethanol] + CCn1cc[n+](C)c1.COCCOCCOS(=O)(=O)[O-], the activity coefficient in data set [1] (308.15 K) came to 0.719 ± 0.032; in data set [1] (313.15 K), 0.705 ± 0.033; in data set [1] (323.15 K), 0.664 ± 0.03; in data set [1] (333.15 K) it was 0.666 ± 0.029.

As to `CCC(C)=O` [butanone] + CCn1cc[n+](C)c1.COCCOCCOS(=O)(=O)[O-], the activity coefficient was determined as 2.33 ± 0.12 in data set [1] (308.15 K), 2.34 ± 0.13 in data set [1] (313.15 K), 2.37 ± 0.18 in data set [1] (323.15 K) and 2.42 ± 0.21 in data set [1] (333.15 K).

With `C1CCCCCC1` [cycloheptane] + CCn1cc[n+](C)c1.COCCOCCOS(=O)(=O)[O-], the activity coefficient in data set [1] (308.15 K) turned out to be 60.3 ± 2.9; in data set [1] (313.15 K), 58.7 ± 3.2; in data set [1] (323.15 K) it was 54.1 ± 3.8; in data set [1] (333.15 K) it was 50.6 ± 5.

`CO` [methanol] + CCn1cc[n+](C)c1.COCCOCCOS(=O)(=O)[O-]: the activity coefficient in data set [1] (308.15 K) is 0.39 ± 0.027; in data set [1] (313.15 K), 0.392 ± 0.027; in data set [1] (323.15 K) it was 0.374 ± 0.031; in data set [1] (333.15 K), 0.369 ± 0.027.

As for `C#CCCCCCCC` [1-nonyne] + CCn1cc[n+](C)c1.COCCOCCOS(=O)(=O)[O-], the activity coefficient in data set [1] (308.15 K) turned out to be 23.9 ± 1.1; in data set [1] (313.15 K), 24.7 ± 1.1; in data set [1] (323.15 K), 25.7 ± 1.9; in data set [1] (333.15 K), 26.4 ± 2.4.

In the case of `C#CCCCCCC` [1-octyne] + CCn1cc[n+](C)c1.COCCOCCOS(=O)(=O)[O-], the activity coefficient turned out to be 16.4 ± 0.7 in data set [1] (308.15 K), 16.7 ± 0.9 in data set [1] (313.15 K), 17.1 ± 1.3 in data set [1] (323.15 K) and 17.4 ± 1.7 in data set [1] (333.15 K).

Consider `C=CCCCC` [hex-1-ene] + CCn1cc[n+](C)c1.COCCOCCOS(=O)(=O)[O-], for which the activity coefficient in data set [1] (308.15 K) turned out to be 45.6 ± 2.4; in data set [1] (313.15 K), 44.7 ± 2.2; in data set [1] (323.15 K) it was 43.4 ± 4.1; in data set [1] (333.15 K), 40.3 ± 3.2.
